Experimental findings from ChEMBL document CHEMBL5537110, “SIRT1-dependent mitochondrial biogenesis supports therapeutic effects of 4-butyl-polyhydroxybenzophenone compounds against NAFLD” (Eur J Med Chem, 2023) are described below.

Assay [1] relates to HepG2. Put plainly: Inhibition of liver injury in 40% FBS-induced steatosis human HepG2 cells model assessed as decrease in LDH level at 0.2 to 5 uM incubated with compound for 24 hrs followed by replacement with steatosis inducing DMEM with 40% FBS medium. The format is functional, cell-based. The note with it: dose 0.2-5 µM.
The subject of assay [2] is HepG2. Put plainly: Inhibition of liver injury in 40% FBS-induced steatosis human HepG2 cells model assessed as decrease in GDH level at 0.2 to 5 uM incubated with compound for 24 hrs followed by replacement with steatosis inducing DMEM with 40% FBS medium. The format is functional, cell-based. The note with it: dose 0.2-5 µM.
The subject of assay [3] is Rattus norvegicus. The assay is described as follows: Hepatoprotective activity against high fat diet-fed NAFLD Sprague-Dawley rat model assessed as increase in serum SOD level administered intragastrically via gavage for 4 weeks. The format is functional, organism-based. The note with it: dose 12.3-61.4 mg/kg, route ig.
Assay [4] addresses T1, NAD-dependent protein deacetylase sirtuin-1 (Homo sapiens) (UniProt Q96EB6).
T1 sequence (whole entry): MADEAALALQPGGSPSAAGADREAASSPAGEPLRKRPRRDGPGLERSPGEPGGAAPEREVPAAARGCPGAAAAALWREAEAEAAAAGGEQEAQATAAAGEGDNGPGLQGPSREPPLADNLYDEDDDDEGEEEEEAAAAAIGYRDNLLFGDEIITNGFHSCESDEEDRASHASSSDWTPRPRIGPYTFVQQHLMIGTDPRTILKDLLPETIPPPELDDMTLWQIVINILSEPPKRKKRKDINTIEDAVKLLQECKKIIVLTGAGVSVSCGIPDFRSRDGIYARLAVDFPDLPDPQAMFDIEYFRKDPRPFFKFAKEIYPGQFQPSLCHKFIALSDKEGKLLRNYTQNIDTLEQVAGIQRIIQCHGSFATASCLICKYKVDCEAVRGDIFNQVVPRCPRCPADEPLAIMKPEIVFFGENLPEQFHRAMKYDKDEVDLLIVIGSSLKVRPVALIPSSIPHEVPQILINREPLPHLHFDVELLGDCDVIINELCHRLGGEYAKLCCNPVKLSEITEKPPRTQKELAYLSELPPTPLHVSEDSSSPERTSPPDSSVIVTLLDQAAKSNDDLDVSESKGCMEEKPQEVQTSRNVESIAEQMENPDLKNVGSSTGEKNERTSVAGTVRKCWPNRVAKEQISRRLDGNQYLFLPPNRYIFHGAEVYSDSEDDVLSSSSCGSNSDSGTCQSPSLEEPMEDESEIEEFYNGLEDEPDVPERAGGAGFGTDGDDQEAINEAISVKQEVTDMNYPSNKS
Put plainly: Binding affinity to SIRT1 in human HepG2 cells assessed as increase in thermal stabilization of protein at 320 uM pretreated with compound for 30 mins followed by incubation at 40 to 65 degC for 3 mins by CETSA-WB analysis. The format is cell-based. Conditions: filed as activator, time 33.0 min.

The test system of assay [5] is HepG2. The assay is described as follows: Inhibition of liver injury in 40% FBS-induced steatosis human HepG2 cells model assessed as decrease in AST level at 0.2 to 5 uM incubated with compound for 24 hrs followed by replacement with steatosis inducing DMEM with 40% FBS medium. It counts as functional, cell-based. Conditions: dose 0.2-5 µM.
The subject of assay [6] is HepG2. The assay is described as follows: Inhibition of lipid toxicity in 40% FBS-induced steatosis human HepG2 cells model assessed as decrease in triglyceride content at 0.2 to 5 uM incubated with compound for 24 hrs followed by replacement with steatosis inducing DMEM with 40% FBS medium. The format is functional, cell-based. The note with it: dose 0.2-5 µM.
In assay [7] the test system is HepG2. Put plainly: Inhibition of liver injury in 40% FBS-induced steatosis human HepG2 cells model assessed as increase in liver protection index by measuring increase in ratio of GSH to GSSG at 0.2 to 5 uM incubated in steatosis inducing DMEM with 40% FBS medium for 24 hrs followed by compound treatment. The format is functional, cell-based. Conditions: dose 0.2-5 µM.

The subject of assay [8] is HepG2. The assay is described as follows: Induction of mitochondrial biogenesis in human HepG2 cells assessed as mitochondrial ND6 protein expression incubated for 24 hrs in presence of SIRT1 inhibitor, EX527 by western blot analysis. It counts as functional, cell-based. Background: In western blotting, separated proteins are transferred to a membrane and probed.
The test system of assay [9] is HepG2. The assay is described as follows: Recovery of mitochondrial biogenesis in 40% FBS-induced steatosis human HepG2 cells model assessed as increase in NRF1 protein expression incubated for 24 hrs by western blot analysis. It counts as functional, cell-based. The note with it: dose 0.2-5 µM.
For assay [10], the system named is HepG2. The assay is described as follows: Induction of mitochondrial biogenesis in human HepG2 cells assessed as TFAM protein expression incubated for 24 hrs in presence of SIRT1 inhibitor, EX527 by western blot analysis. It counts as functional, cell-based.
For assay [11], the system named is Rattus norvegicus. The assay is described as follows: Hepatoprotective activity against high fat diet-fed NAFLD Sprague-Dawley rat model assessed as decrease in serum GDH level administered intragastrically via gavage for 4 weeks. The format is functional, organism-based. Conditions: dose 12.3-61.4 mg/kg, route ig.
In assay [12] the test system is HepG2. The assay is described as follows: Recovery of energy production in 40% FBS-induced steatosis human HepG2 cells model assessed as upregulation of mitochondrial ATP production incubated with compound for 24 hrs followed by replacement with steatosis inducing DMEM with 40% FBS medium by luciferase based assay. The format is functional, cell-based. Conditions: Mitochondria, dose 0.2-5 µM.

Assay [13] concerns HepG2. The assay is described as follows: Inhibition of lipid toxicity in 40% FBS-induced steatosis human HepG2 cells model assessed as decrease in triglyceride content at 0.2 to 5 uM incubated in steatosis inducing DMEM with 40% FBS medium for 24 hrs followed by compound treatment. The note with it: dose 0.2-5 µM. It counts as functional, cell-based.
Assay [14] deals with HepG2. The assay is described as follows: Induction of mitochondrial biogenesis in human HepG2 cells assessed as PGC1alpha protein expression incubated for 24 hrs in presence of SIRT1 inhibitor, EX527 by western blot analysis. It counts as functional, cell-based.
Assay [15] has as its system HepG2. Put plainly: Induction of mitochondrial biogenesis in human HepG2 cells assessed as mitochondrial COX1 protein expression incubated for 24 hrs in presence of SIRT1 inhibitor, EX527 by western blot analysis. The format is functional, cell-based.

Calls of active or inactive are those of the source. The rule behind the calls is not given here.

For `CC(C)(C)c1ccc(C(=O)c2ccc(O)c(O)c2)cc1`, the inhibition result in [1], in [2], in assay [5], in assay [6], in assay [7] and in [13] was “Active” in each case. Besides, the outcome in assay [3], in [4] and in assay [11] was Active. Moreover, the outcome in [8], in [10], in assay [14] and in assay [15] was inactive. In addition, the Activity entry in [9] and in [12] was “Dose-Dependent Effect” throughout.
